According to patent US9579303B2, “Compositions containing polysaccharides” (DSM IP ASSETS B.V., priority 2005, dated 2017):

Key:
[1] = Granule size distribution by sieve analysis; type: physicochemical
[2] = Flowability: time for 100 g to flow through an 11-mm funnel orifice; type: physicochemical; details: 100 g through an 11-mm orifice of a funnel
Method: The flowability was determined by the time needed to have 100 g of genistein crystals or genistein granules flowing through an 11-mm orifice of a funnel.

Granule Particle Size Distribution <150 μm ([1]; sieve fraction <150 μm): 7.2%
Granule Particle Size Distribution >150 μm ([1]; sieve fraction >150 μm): 28.2%
Granule Particle Size Distribution >250 μm ([1]; sieve fraction >250 μm): 50%
Granule Particle Size Distribution >425 μm ([1]; sieve fraction >425 μm): 14.5%
Granule Particle Size Distribution >600 μm ([1]; sieve fraction >600 μm): 0%
Granule Particle Size Distribution >800 μm ([1]; sieve fraction >800 μm): 0%
Granule Particle Size Distribution >850 μm ([1]; sieve fraction >850 μm): 0.1%
Flowability [2]: No flow
Structure (SMILES): O=c1c(-c2ccc(O)cc2)coc2cc(O)cc(O)c12 [Genistein crystal, genistein]
